Data: PubChem BioAssay (NCI)
Values joined by “and” are separate entries in the source; they are usually repeats but may differ in a detail not shown here. Equal entries are not always repeated.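 A five-concentration, 48-hour dose response in 96-well plates underlies each endpoint, interpolated linearly between surrounding concentrations. GI50 marks 50% less growth. TGI is the concentration that stops growth completely.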

Experiments:
Test in all cases: DTP human tumour cell line panel, 48 h
[1] = tested on: A498 renal
[2] = tested on: A549 NSCLC
[3] = tested on: CAKI-1 renal
[4] = tested on: HOP-62 NSCLC
[5] = tested on: HT29 colon
[6] = tested on: KM12 colon
[7] = tested on: NCI-H226 lung
[8] = tested on: OVCAR-3 ovarian
[9] = tested on: SF-539 CNS
[10] = tested on: SNB-19 CNS

Structure (SMILES) | GI50 [1] | TGI [1] | GI50 [2] | TGI [2] | GI50 [3] | TGI [3] | GI50 [4] | TGI [4] | GI50 [5] | TGI [5] | GI50 [6] | TGI [6] | GI50 [7] | TGI [7] | GI50 [8] | TGI [8] | GI50 [9] | TGI [9] | GI50 [10] | TGI [10]
CCN1C(=O)/C(=c2\sc3n(c2=O)C2C(NN=3)N(CC)C(=O)N2CC)c2ccccc21 (centres undefined) | 0.181 µM | 0.697 µM | 0.795 µM | > 100 µM | 0.465 µM | 32.2 µM | 0.786 µM | > 42.6 µM | 0.369 µM | > 100 µM | 0.469 µM | > 73.4 µM | 0.736 µM | 22.8 µM | 0.323 µM | 3.32 µM | 0.271 µM | 0.937 µM | 0.75 µM | 63 µM
COc1cc(/C=C2\CCC/C(=C\c3cc(CN4CCCC4)c(O)c(OC)c3)C2=O)cc(CN2CCCC2)c1O | 2.94 µM | 8.54 µM | 3.5 µM | 12.8 µM | 5.51 µM | 17.7 µM | 2.93 µM | 9.35 µM | 0.322 µM | 1.78 µM | 2.73 µM | 7.15 µM | 2.57 µM | 6.84 µM | 3.89 µM | 13.8 µM | 1.72 µM | 3.63 µM | 8.21 µM | 20.8 µM
CCOC(=O)C1=C(C)NC2SC(=O)/C(=C\c3cccc(Cl)c3)N2C1c1ccccc1 (centres undefined) | > 100 µM | > 100 µM | > 100 µM | > 100 µM | > 100 µM | > 100 µM | > 100 µM | > 100 µM | > 100 µM | > 100 µM | > 100 µM | > 100 µM | > 100 µM | > 100 µM | > 100 µM | > 100 µM | > 100 µM | > 100 µM | > 100 µM | > 100 µM
Cc1nc2ccc(-n3ncc(C(=O)c4cc5ccccc5[nH]4)c3N)cc2[nH]1 | 0.496 µM | 54.3 µM | 8.46 µM | > 100 µM | 7.16 µM | > 100 µM | 4.9 µM | 51.6 µM | 5.13 µM | 66.9 µM | 3.53 µM | 43.1 µM | 10.5 µM | 49.9 µM | 11.2 µM | > 100 µM | 1.17 µM | 10.9 µM | 15.4 µM | > 100 µM
Cc1[nH]c(C(=O)Nc2cccc(OC3CCNCC3)c2)c(Cl)c1Cl | 1.89 µM | 4.6 µM | 2.04 µM | 4.17 µM | 1.82 µM | 3.39 µM | 1.9 µM | 4.53 µM | 1.92 µM | 4.44 µM | 1.93 µM | 3.73 µM | 2.43 µM | 6.78 µM | 1.97 µM | 4.01 µM | 1.64 µM | 3.06 µM | 2.11 µM | 5.18 µM
CCCCCCCCCCCCC(O)C1CCC(C(O)CCCCC(O)CCCCCC2CC(CC(C)=O)C(=O)O2)O1 (centres undefined) | 5.64 µM | 20.6 µM | 1.55 µM | 18.7 µM | 2.29 µM | 22.3 µM | 2.74 µM | 19.1 µM | 1.37 µM | 2.65 µM and 15.4 µM | 7.64 µM | 4.89 µM and 20.5 µM | 0.0401 µM | 4.19 µM and 12.7 µM | 1.37 µM | 2.65 µM and 7.59 µM | 2.36 µM | 21.1 µM |  | 15.3 µM
Cc1ccc(C2=NN(c3ccc(S(=O)(=O)NC(=O)NCc4ccccc4)cc3)C(c3ccc(N(C)C)cc3)C2)c(C)c1 (centres undefined) | 3.08 µM | 12.5 µM | 3.46 µM | 16.4 µM | 3.45 µM | 87.1 µM | 5.69 µM | 28 µM | 4.53 µM | 19.1 µM | 3.49 µM | 15.4 µM | 3.91 µM | 15.9 µM | 2.24 µM | 4.95 µM | 2.43 µM | 6.02 µM | 4.6 µM | > 100 µM
COc1ccc2c(c1)OCC1c3cc(OC)c4ccccc4c3OC21 (centres undefined) | 25 µM | > 100 µM | 15.8 µM | > 100 µM | 5.05 µM | 44.9 µM | 14.7 µM | > 100 µM | 3.84 µM | > 100 µM | 4.82 µM | > 100 µM | 15.6 µM | 90.2 µM | 1.5 µM | 4.08 µM | 21.3 µM | > 100 µM | 23.9 µM | > 100 µM
CCc1ccc(Oc2c(-c3ccc(OCCc4cccc(C(F)(F)F)c4)cc3O)n[nH]c2C(F)(F)F)cc1 | 5.93 µM | 12.8 µM | 4.89 µM | 11.1 µM | 6.79 µM | 13.3 µM | 5.76 µM | 12 µM | 8.13 µM | 14.9 µM | 4.2 µM | 10.8 µM | 6.9 µM | 14.3 µM | 1.52 µM | 4.66 µM | 7.39 µM | 14 µM | 2.69 µM | 9.03 µM
NS(=O)(=O)c1ccc(N=Nc2c(O)[nH]c3ccc(C(=O)NCCCn4ccnc4)cc23)cc1 | > 25 µM | > 25 µM | > 25 µM | > 25 µM | > 25 µM | > 25 µM | > 25 µM | > 25 µM | > 25 µM | > 25 µM | > 25 µM | > 25 µM | > 25 µM | > 25 µM | > 25 µM | > 25 µM | > 25 µM | > 25 µM | > 25 µM | > 25 µM
COc1ccc(-c2cc(=O)c3c(OC)c4ccoc4c(/C=C/C=O)c3o2)cc1 | 17.2 µM | 71.9 µM | 18.5 µM | 72.4 µM | 5.03 µM | > 100 µM | 2.98 µM | 11.1 µM | 18.1 µM | > 100 µM | 12.3 µM | 25.7 µM | 2.93 µM | 8.89 µM | 3.92 µM | 25.3 µM | 4.14 µM | 19.6 µM | 3.16 µM | 46.6 µM
O=C1/C(=C/c2ccc(Cl)cc2)CN(Cc2cn(CCCNc3ccnc4cc(Cl)ccc34)nn2)C/C1=C\c1ccc(Cl)cc1 | 1.23 µM | 2.53 µM | 1.15 µM | 2.56 µM | 0.734 µM | 2.92 µM | 1.47 µM | 2.94 µM | 0.27 µM | 0.775 µM | 0.291 µM | 1.11 µM | 1.92 µM | 4.39 µM | 0.56 µM | 1.85 µM | 0.645 µM | 1.72 µM | 0.643 µM | 1.86 µM
CS(=O)(=O)Nc1cc(-c2ccc3ncc(C#N)c(Nc4ccc(F)c(Cl)c4)c3c2)cnc1Cl | 0.0398 µM | 0.302 µM | 0.468 µM | 3.12 µM | 0.258 µM | 1.24 µM | 0.195 µM | 8.42 µM | 0.29 µM | 2.3 µM | 0.276 µM | 1.91 µM | 0.258 µM | 2.16 µM | 0.0657 µM | 0.909 µM | 0.109 µM | 0.79 µM | 0.212 µM | 1.64 µM
CC(=O)[O-].CC(=O)[O-].O=C([CH-]C(=O)c1ccccc1)c1ccccc1.[Nd+3].[OH3+] | 43.1 µM | > 100 µM | 28.2 µM | 84.3 µM | 27.9 µM | 91.3 µM | 14.7 µM | 73.6 µM | 20.9 µM | 89.6 µM | 14 µM | > 100 µM | 13.8 µM | 60.6 µM | 10.7 µM | 33.5 µM | 31.6 µM | 93.5 µM | 30.1 µM | > 100 µM
Cc1cc(O)ccc1C1(c2ccc(O)cc2C)OC(=O)c2ccccc21 | 17.7 µM | 33.3 µM | 20.8 µM | 37 µM | 16 µM | 30.1 µM | 16.7 µM | 32.5 µM | 19.9 µM | 35.5 µM | 18.8 µM | 37.7 µM | 19.1 µM | 41 µM | 16.4 µM | 30.1 µM | 17.4 µM | 33.5 µM | 18.7 µM | 35.2 µM
NC(=O)c1c[nH]c2ncnc(N)c12 | 22.9 µM | 67.4 µM | > 100 µM | > 100 µM | 2.69 µM | 33.8 µM | 53.3 µM | > 100 µM | 26.6 µM | > 100 µM | 24.8 µM | > 100 µM | 67.3 µM | > 100 µM | 23.5 µM | > 100 µM | 44.8 µM | > 100 µM | > 100 µM | > 100 µM
CC(C)c1cnc(-c2cc(Cl)ccc2F)cc1Nc1ccncc1C(=O)NC(CO)CO | 2.28 µM | 19.7 µM | 11.1 µM | 62.3 µM | 6.28 µM | 68.7 µM | 12.8 µM | 32.9 µM | 14.6 µM | 33.7 µM | 17.7 µM | 37.4 µM | 13.6 µM | 34.8 µM | 14.3 µM | 32.8 µM | 15 µM | 29.9 µM | 15.6 µM | 54 µM
COc1ccc2[nH]c(C(=O)OCc3ccc4c(Br)cc(Br)c(O)c4n3)cc2c1 | 1.8 µM | 3.31 µM | 1.63 µM | 3.54 µM | 0.482 µM | 1.83 µM | 1.38 µM | 3.34 µM | 0.39 µM | 1.49 µM | 1.64 µM | 3.38 µM | 1.3 µM | 2.81 µM | 0.447 µM | 1.56 µM | 0.768 µM | 2.05 µM | 1.5 µM | 2.89 µM
